One series deals with Ishikawa. The experiment in a line: Inhibition of cell proliferation in human Ishikawa cells incubated for 48 hrs by CCK-8 assay. (In general: Tetrazolium dyes change colour on reduction, which living cells bring about.)
In a further series the test system is KLE. Briefly: Inhibition of cell proliferation in human KLE cells incubated for 48 hrs by CCK-8 assay.
In the next series the target is T1, CYP1A2 (Homo sapiens, UniProt P05177).
T1 sequence (P05177 whole entry): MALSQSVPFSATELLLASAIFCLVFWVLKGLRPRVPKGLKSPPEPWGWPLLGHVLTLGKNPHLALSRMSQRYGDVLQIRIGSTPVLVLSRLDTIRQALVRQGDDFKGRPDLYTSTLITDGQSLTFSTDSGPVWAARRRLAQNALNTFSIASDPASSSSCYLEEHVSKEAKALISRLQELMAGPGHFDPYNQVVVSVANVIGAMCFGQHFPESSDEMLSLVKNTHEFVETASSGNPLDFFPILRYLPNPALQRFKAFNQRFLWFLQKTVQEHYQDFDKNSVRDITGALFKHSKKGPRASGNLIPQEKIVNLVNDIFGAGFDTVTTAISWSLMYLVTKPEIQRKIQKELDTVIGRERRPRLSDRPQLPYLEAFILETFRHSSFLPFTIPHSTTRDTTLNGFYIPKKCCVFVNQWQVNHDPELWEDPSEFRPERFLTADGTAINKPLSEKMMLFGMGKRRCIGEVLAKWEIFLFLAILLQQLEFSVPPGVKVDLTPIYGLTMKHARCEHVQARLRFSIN
The experiment in a line: Inhibition of CYP1A2 (unknown origin) at 10 uM relative to control. Format: ADME.

The next series deals with CYP2C9 (Homo sapiens, UniProt P11712). The experiment in a line: Inhibition of CYP2C9 (unknown origin) at 10 uM relative to control. The format is ADME.
Sequence of CYP2C9 (P11712 whole entry): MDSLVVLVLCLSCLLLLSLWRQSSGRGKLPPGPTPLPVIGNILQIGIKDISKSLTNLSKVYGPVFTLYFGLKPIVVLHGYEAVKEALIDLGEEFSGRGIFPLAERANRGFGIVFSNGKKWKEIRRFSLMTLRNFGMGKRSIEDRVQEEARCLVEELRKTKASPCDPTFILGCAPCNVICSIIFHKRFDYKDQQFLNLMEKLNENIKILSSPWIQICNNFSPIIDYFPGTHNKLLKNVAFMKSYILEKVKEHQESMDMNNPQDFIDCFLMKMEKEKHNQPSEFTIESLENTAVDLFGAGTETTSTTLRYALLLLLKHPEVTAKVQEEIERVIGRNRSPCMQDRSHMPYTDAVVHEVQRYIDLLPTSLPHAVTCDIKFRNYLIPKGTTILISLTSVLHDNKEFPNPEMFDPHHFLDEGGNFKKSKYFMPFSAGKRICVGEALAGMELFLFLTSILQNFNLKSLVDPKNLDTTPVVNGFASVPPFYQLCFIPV
The next series deals with CYP2C19 (Homo sapiens, UniProt P33261). Briefly: Inhibition of CYP2C19 (unknown origin) at 10 uM relative to control. Format: ADME.
Sequence of CYP2C19 (P33261 whole entry): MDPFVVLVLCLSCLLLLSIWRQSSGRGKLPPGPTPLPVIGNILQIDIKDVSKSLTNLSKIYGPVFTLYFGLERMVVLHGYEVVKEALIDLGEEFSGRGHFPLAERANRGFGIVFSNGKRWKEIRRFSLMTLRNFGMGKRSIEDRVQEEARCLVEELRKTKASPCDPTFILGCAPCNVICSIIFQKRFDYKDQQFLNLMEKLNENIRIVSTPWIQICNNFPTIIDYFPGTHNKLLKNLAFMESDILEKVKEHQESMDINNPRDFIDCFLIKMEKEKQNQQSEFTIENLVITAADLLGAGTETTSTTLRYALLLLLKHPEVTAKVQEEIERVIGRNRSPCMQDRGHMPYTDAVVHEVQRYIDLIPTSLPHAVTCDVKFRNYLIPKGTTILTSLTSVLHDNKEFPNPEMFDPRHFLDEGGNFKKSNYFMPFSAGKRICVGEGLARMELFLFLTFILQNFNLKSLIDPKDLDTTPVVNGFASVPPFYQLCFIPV
The next series concerns the target CYP2D6 (Homo sapiens, UniProt P10635). Briefly: Inhibition of CYP2D6 (unknown origin) at 10 uM relative to control. Format: ADME.
The target in the next series is CYP3A4 (Homo sapiens, UniProt P08684). The experiment in a line: Inhibition of CYP3A4 (unknown origin) at 10 uM relative to control. The format is ADME.
Sequence of CYP3A4 (P08684 whole entry): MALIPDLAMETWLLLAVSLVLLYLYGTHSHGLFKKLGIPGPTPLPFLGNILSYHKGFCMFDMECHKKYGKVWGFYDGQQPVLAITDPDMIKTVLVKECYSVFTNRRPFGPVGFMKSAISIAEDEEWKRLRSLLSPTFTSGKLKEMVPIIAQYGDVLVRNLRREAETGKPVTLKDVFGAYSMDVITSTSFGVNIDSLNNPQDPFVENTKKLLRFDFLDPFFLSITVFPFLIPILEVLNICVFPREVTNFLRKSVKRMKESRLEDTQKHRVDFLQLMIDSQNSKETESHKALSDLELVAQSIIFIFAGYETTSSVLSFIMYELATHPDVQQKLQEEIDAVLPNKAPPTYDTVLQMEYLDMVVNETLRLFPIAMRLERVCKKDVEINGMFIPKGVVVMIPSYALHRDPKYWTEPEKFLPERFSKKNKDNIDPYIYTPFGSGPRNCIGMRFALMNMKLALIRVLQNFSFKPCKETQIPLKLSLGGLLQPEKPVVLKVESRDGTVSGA
Series [1] in a line: in vitro. The note with it: human, liver microsomes. In general terms: Liver microsomes are vesicles of endoplasmic reticulum, rich in cytochrome P450 enzymes.
Series [2] can be described thus: in vitro. The note with it: human, liver microsomes. The source holds these as a separate data set.
A short description of series [3]: in vitro. Particulars: mouse, liver microsomes.
Description: Metabolic stability in mouse liver microsomes assessed as half life
Series [4] can be described thus: in vitro. Particulars: mouse, liver microsomes. This is another data set of the same source.
Series [5] in a line: in vitro. Particulars: plasma.
Description: Protein binding in plasma (unknown origin)

Sequence of CYP2D6 (P10635 whole entry): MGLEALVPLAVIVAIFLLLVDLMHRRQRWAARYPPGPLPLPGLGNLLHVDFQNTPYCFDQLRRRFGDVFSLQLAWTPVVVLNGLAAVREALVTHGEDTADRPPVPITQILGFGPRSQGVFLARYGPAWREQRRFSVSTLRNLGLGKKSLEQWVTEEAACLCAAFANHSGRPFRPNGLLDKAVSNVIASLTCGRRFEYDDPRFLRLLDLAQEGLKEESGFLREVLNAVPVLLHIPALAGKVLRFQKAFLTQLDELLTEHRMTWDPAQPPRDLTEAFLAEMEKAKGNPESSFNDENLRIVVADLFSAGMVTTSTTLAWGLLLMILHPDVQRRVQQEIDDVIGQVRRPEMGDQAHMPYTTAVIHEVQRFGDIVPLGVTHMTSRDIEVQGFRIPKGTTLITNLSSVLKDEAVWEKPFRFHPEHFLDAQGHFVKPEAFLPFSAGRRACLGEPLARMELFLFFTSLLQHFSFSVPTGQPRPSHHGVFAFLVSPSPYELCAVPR

For orientation: IC50 means the concentration that inhibits the measured activity by half. Low values mean inhibition by little substance, high ones a need for much substance. Turning to `Clc1ccc2c(c1)N(CCCCCN1CCC3(CC1)CCN(Cc1ccccn1)CC3)c1ncccc1S2`, in the series on Ishikawa, the IC50 is 12.8 µM.

In the case of `CC(C)(C)OC(=O)N1CC2(CCN(CCCCCN3c4cc(Cl)ccc4Sc4cccnc43)CC2)C1`, the IC50 in the series with Ishikawa was 11.4 µM.

`CC(C)(C)OC(=O)N1CCC2(CC1)CCN2CCCCCN1c2cc(Cl)ccc2Sc2cccnc21`: the IC50 with Ishikawa was 6.13 µM; in the series with KLE it was 6.23 µM.

For the compound `CC(C)(C)OC(=O)N1CCC2(CN(CCCCCN3c4cc(Cl)ccc4Sc4cccnc43)C2)C1`, in the series on Ishikawa, the IC50 was determined as 12.7 µM.

Regarding `CN1CCC2(CC1)CCN(CCCCCN1c3cc(Cl)ccc3Sc3cccnc31)CC2`, the IC50 with Ishikawa is 1.21 µM; in the series on KLE, 3.17 µM.

`CC(=O)N1CCC2(CCN(CCCCCN3c4cc(Cl)ccc4Sc4cccnc43)CC2)CC1` displayed an IC50 in the series with Ishikawa of 10.4 µM.

As to `CN1CCC2(CC1)CCN(CCCCCN1c3cc(OCc4ccccc4)ccc3Sc3cccnc31)CC2`, the IC50 with Ishikawa amounted to 14.6 µM.

In the series with Ishikawa, `O=C1CC2(CCN(CCCCCN3c4cc(Cl)ccc4Sc4cccnc43)CC2)C(=O)N1` registered an IC50 of 14.5 µM.

For `CC(C)(C)OC(=O)N1CCC2(CC1)CN(CCCCCN1c3cc(Cl)ccc3Sc3cccnc31)C2`, in the series with Ishikawa, half-maximal inhibition (IC50) required 8.23 µM.

In turn, `CC(C)(C)OC(=O)N1C[C@]2(C)C[C@@]1(C)CN2CCCCCN1c2cc(Cl)ccc2Sc2cccnc21` returned an IC50 in the series on Ishikawa of 18.7 µM.

Consider `CC(C)(C)OC(=O)N1CCC2(CCCN(CCCCCN3c4cc(Cl)ccc4Sc4cccnc43)C2)CC1`, for which it took 47.5 µM to reach half-maximal inhibition in the series on Ishikawa (IC50).

As to `CC(C)(C)OC(=O)N1CCC2(CCN(CCCCCN3c4cc(C(F)(F)F)ccc4Sc4cccnc43)CC2)CC1`, the IC50 came out at 6.75 µM with Ishikawa and 14.5 µM in the series with KLE.

In the series on Ishikawa, `CC(C)(C)OC(=O)N1CCC2(CCCN2CCCCCN2c3cc(Cl)ccc3Sc3cccnc32)CC1` had a half-inhibitory concentration (IC50) of 13.3 µM.

`CC(C)(C)OC(=O)N1CCC2(CCN(CCCCCN3c4cc(Cl)ccc4Sc4cccnc43)CC2)C1`: the figures for the IC50 in the series with Ishikawa and in the series with KLE were 735 µM and 10.7 µM, respectively.

As to `CC(C)(C)OC(=O)N1CCC2(CCN(CCCCCN3c4cc(Cl)ccc4Sc4cccnc43)CC2)CC1`, the IC50 with Ishikawa was 5.37 µM; with KLE it was 9.55 µM.

In the case of `CC(C)(C)OC(=O)N1CCC2(CCN(CCCCCN3c4ccccc4Sc4cccnc43)CC2)CC1`, the IC50 came out at 6 µM in the series on Ishikawa and 9.99 µM in the series on KLE.

In the case of `CCCN1CCC2(CC1)CCN(CCCCCN1c3cc(Cl)ccc3Sc3cccnc31)CC2`, the IC50 in the series with Ishikawa was 1.41 µM; in the series on KLE, 3.53 µM.

For `C#CCN1CCC2(CC1)CCN(CCCCCN1c3cc(Cl)ccc3Sc3cccnc31)CC2`, the IC50 with Ishikawa turned out to be 4.58 µM; in the series with KLE, 8.31 µM.

On to `CC(C)(C)OC(=O)N1CCC2(CCN(CCCCN3c4cc(Cl)ccc4Sc4cccnc43)CC2)CC1`, for which inhibition in the series with Ishikawa was half-maximal at 11.1 µM (IC50).

Consider `Clc1ccc2c(c1)N(CCCCCN1CCC3(CC1)CCN(Cc1ccccc1)CC3)c1ncccc1S2`, for which the IC50 was determined as 2.4 µM with Ishikawa and 3.96 µM with KLE.

In the series with Ishikawa, `CC(C)(C)OC(=O)N1CCC2(CCN(CCCCCN3c4cc(Cl)ccc4Sc4cccnc43)C2)C1` (centres undefined) returned an IC50 of 10.9 µM.

In the series with Ishikawa, `CC(C)(C)OC(=O)N1C2CC1CN(CCCCCN1c3cc(Cl)ccc3Sc3cccnc31)C2` registered an IC50 of 53.4 µM.

The term inhibition denotes the percentage by which the read-out fell short of the control. A lower inhibition goes with a response near the control. As to `COc1ccc2c(c1)N(CCCCCN1CCC3(CCN(C)CC3)CC1)c1ncccc1S2`, the inhibition at 10 µM against CYP1A2 is 0%; on CYP2C9, 7%; at CYP2C19, 7.5%; on CYP2D6 it was 14.8%; against CYP3A4, 20%.

`CC(C)(C)OC(=O)N1CCC2(CCN(CCCCCN3c4cc(Cl)ccc4Sc4cccnc43)C2)CC1` yielded an IC50 with Ishikawa of 11.6 µM.

For the compound `CC(C)(C)OC(=O)N1CC2(CN(CCCCCN3c4cc(Cl)ccc4Sc4cccnc43)C2)C1`, the IC50 in the series with Ishikawa amounted to 12.2 µM.

`CCN(CC)c1ccc2c(c1)N(CCCCCN1CCC3(CCN(C)CC3)CC1)c1ncccc1S2`: the IC50 with Ishikawa was determined as 17.5 µM.

Consider `CC(C)(C)OC(=O)N1CCCC12CCN(CCCCCN1c3cc(Cl)ccc3Sc3cccnc31)CC2`, for which the IC50 in the series on Ishikawa worked out at 7.4 µM; in the series on KLE, 8.52 µM.

In the series with Ishikawa, `CC(C)(C)OC(=O)N1CC2(CCN(CCCCCN3c4cc(Cl)ccc4Sc4cccnc43)C2)C1` had an IC50 of 14.4 µM.

Regarding `CC(C)(C)OC(=O)N1CCC2(CC1)CN(CCCCCN1c3cc(Cl)ccc3Sc3cccnc31)CCO2`, the IC50 in the series with Ishikawa stood at 45.4 µM.

In the case of `Clc1ccc(CN2CCC3(CCN(CCCCCN4c5cc(Cl)ccc5Sc5cccnc54)CC3)CC2)cc1`, the IC50 amounted to 2.57 µM in the series with Ishikawa and 3.49 µM in the series on KLE.

With `O=C1CC2(CCN(Cc3ccccc3)CC2)CC(=O)N1CCCCCN1c2cc(Cl)ccc2Sc2cccnc21`, in the series on Ishikawa, the IC50 worked out at 27.5 µM.

For `CC(C)(C)OC(=O)N1CCC2(CCN(CCCCCCN3c4cc(Cl)ccc4Sc4cccnc43)CC2)CC1`, in the series with Ishikawa, 13.3 µM corresponded to half-maximal inhibition (IC50).

In the series on Ishikawa, `CC(C)(C)OC(=O)N1CC2CC1CN2CCCCCN1c2cc(Cl)ccc2Sc2cccnc21` (centres undefined) showed an IC50 of 21.3 µM.

Turning to `Clc1ccc2c(c1)N(CCCCCN1CCC3(CCNCC3)CC1)c1ncccc1S2`, the IC50 with Ishikawa was 1.7 µM; in the series on KLE, 2.88 µM.

For the compound `COc1ccc2c(c1)N(CCCCCN1CCC3(CC1)CCN(C(=O)OC(C)(C)C)CC3)c1ncccc1S2`, the IC50 was 3.95 µM with Ishikawa and 8.06 µM in the series with KLE.

By half-life is commonly meant the time in which the quantity being followed falls by half. A low value points to rapid decline. One may read the CLint scaled as the capacity of the preparation to metabolise the compound, expressed as a volume cleared per time. Read a low CLint scaled as greater metabolic stability. The term fraction unbound denotes the share of the substance not bound to proteins or other matrix. A low value points to extensive binding. As to `CN(C)CCCN1c2ccccc2Sc2ccc(Cl)cc21.Cl` [CHLORPROMAZINE HYDROCHLORIDE], the IC50 in the series on Ishikawa is 22 µM; with KLE, 35 µM. The half-life in “in vitro [1]” is 23.8 min; in “in vitro [3]” it was 7.6 min. The values for the CLint scaled in “in vitro [2]” and in “in vitro [4]” were 52.3 mL/min/kg and 724 mL/min/kg, respectively. The compound also showed a free fraction (fraction unbound) in the series “in vitro [5]” of 0.0156.

For the origin of these results see ChEMBL document CHEMBL5576122, “Discovery of Novel Azaphenothiazine Derivatives to Suppress Endometrial Cancer by Targeting GRP75 to Impair Its Interaction with IP3R and Mitochondrial Ca2+ Homeostasis” (J Med Chem, 2024).
